Data as given in PubChem BioAssay (NCI).
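Each compound was tested at five concentrations against cells in 96-well plates for 48 hours. TGI: concentration producing complete growth inhibition.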

Columns and labels:
Test in all cases: DTP human tumour cell line panel, 48 h
ACHN renal = tested on: ACHN renal
RPMI-8226 leukemia = tested on: RPMI-8226 leukemia
KM12 colon = tested on: KM12 colon
SF-295 CNS = tested on: SF-295 CNS
T-47D breast = tested on: T-47D breast
SNB-75 CNS = tested on: SNB-75 CNS
BT-549 breast = tested on: BT-549 breast
SK-MEL-5 melanoma = tested on: SK-MEL-5 melanoma
OVCAR-5 ovarian = tested on: OVCAR-5 ovarian
MDA-MB-435 = tested on: MDA-MB-435
HT29 colon = tested on: HT29 colon
HCT-15 colon = tested on: HCT-15 colon
NCI-H460 lung = tested on: NCI-H460 lung
SK-MEL-2 melanoma = tested on: SK-MEL-2 melanoma
A549 NSCLC = tested on: A549 NSCLC
COLO 205 colon = tested on: COLO 205 colon
NCI-H23 lung = tested on: NCI-H23 lung
UACC-257 melanoma = tested on: UACC-257 melanoma
M14 melanoma = tested on: M14 melanoma
LOX IMVI melanoma = tested on: LOX IMVI melanoma

Measured: TGI

NC(CCOCCP(=O)(O)O)C(=O)O (stereo not given)
> 100 µM: all assays above
